Laboratory results published in publication PMC5770468, “Cardiac glycoside/aglycones inhibit HIV-1 gene expression by a mechanism requiring MEK1/2-ERK1/2 signaling” (Scientific Reports, 2018).

How the values were obtained:
[1] = test system: Tra2β; assay: Immunoblot of Tra2β in HeLa rtTA-HIV-ΔMls cells; assay type: cell-based, human; conditions: 3 d with ~IC50s of CSs
Source text: Figure 4 CSs suppress HIV-1 gene expression by altering viral RNA processing. […] (a,b) CSs induce oversplicing of HIV-1 RNAs (n ≥ 3, mean, s.e.m.). (a) Diagram of the primer positions (arrow heads) used for qRT-PCR. (b) Graph of the relative amount of US (black), SS (white), and MS (gray) HIV-1 RNAs in cells treated with various CSs. (c) Nuclear export of HIV-1 US RNAs in cells is altered by CSs (representative n ≥ 4). HIV-1 US RNAs were localized by FISH after treating HeLa rtTA-HIV(Gag-GFP) cells as described above but with ~IC90s of CSs. Nuclei were stained by DAPI and images captured at 630 × magnification. […] SRp20, Tra2β, and tubulin were analyzed by immunoblot of HeLa rtTA-HIV-ΔMls cells treated as described above except cells of this representative blot were treated 3 d with ~IC50s of CSs. […]
To monitor HIV-1 gene expression or replication, Gag release into cell culture supernatants were assayed by ELISA using a p24^CA antigen capture assay kit (AIDS & Cancer Virus Program, NCI-Frederick, Frederick, MD USA). […] For analysis of HIV-1 and SR protein expression (and phosphorylation states with calf intestinal alkaline phosphatase treatments), cells were lysed and analyzed by western blot as previously outlined. […] Activation of MAPKs was determined by western blot quantitation and calculation of phospho/total protein levels. […]

[2] = test system: PBMCs from HIV-infected patients; assay: Cell viability by XTT in HIV-infected patient PBMCs; assay type: cell-based, human; conditions: up to 20 d of culture, relative to controls
Procedure: Figure 2 CSs inhibit the growth of clinical strains of HIV isolated from HIV infected patients. PBMCs from HIV infected patients were depleted of CD8^+ T cells (Supplementary Fig. S3), activated by anti-CD3 and anti-CD28 antibodies, and treated 20 d with indicated concentrations of drug/compound. HIV particle formation was quantitated by p24^CA ELISA of cell supernatants and viability of cells were assayed by XTT. […] (a–e) CSs potently impair the outgrowth of HIV from HIV-infected PBMCs (n = 3, mean, s.e.m.). Graphs of viral growth (p24 protein levels) and cell viability (gray circles, adjacent y-axis) of cells treated with drug/compounds (red triangles) or DMSO (black circles) are shown. The drug 3TC and the CS digoxin (d–e) were provided for comparison. […] Dose-response curves of CS effects on HIV replication (relative Gag expression, black circles) and cell viability (gray circles) were measured on day 14.
Human PBMCs were obtained for experiments from drug-naïve HIV-infected patients, depleted of CD8^+ T cells using Dynabeads CD8 (Invitrogen, #111.47D), activated with anti-CD3 and anti-CD28 antibodies, and treated as previously described and above[10],[11]. […] HIV growth in cultures was monitored by p24^CA ELISA of cell supernatants harvested (detailed below) and the effect of compounds on cell viability were monitored by XTT assay.

| SMILES | abundance of a modified species of Tra2β [1] | cell viability of HIV-infected PBMCs [2] |
| --- | --- | --- |
| C[C@]12CC[C@H](O)C[C@H]1CC[C@@H]1[C@@H]2CC[C@]2(C)[C@@H](C3=CC(=O)OC3)CC[C@]12O [Digitoxigenin] | no effect | no observable changes in cell viability |
| C[C@H]1O[C@@H](O[C@H]2[C@@H](O)C[C@H](O[C@H]3[C@@H](O)C[C@H](O[C@H]4CC[C@@]5(C)[C@H](CC[C@@H]6[C@@H]5CC[C@]5(C)[C@@H](C7=CC(=O)OC7)CC[C@]65O)C4)O[C@@H]3C)O[C@@H]2C)C[C@H](O)[C@@H]1O [Digitoxin] | – | no observable changes in cell viability |
| CC(=O)O[C@H]1C[C@H](O[C@H]2[C@@H](O)C[C@H](O[C@H]3[C@@H](O)C[C@H](O[C@H]4CC[C@@]5(C)[C@H](CC[C@@H]6[C@@H]5C[C@@H](O)[C@]5(C)[C@@H](C7=CC(=O)OC7)CC[C@]65O)C4)O[C@@H]3C)O[C@@H]2C)O[C@H](C)[C@H]1O[C@@H]1O[C@H](CO)[C@@H](O)[C@H](O)[C@H]1O [Lanatoside C] | no effect | – |
